According to patent publication US20230017045A1, “PYRIDINE AND PYRIMIDINE CARBOXYLATE HERBICIDES AND METHODS OF USE THEREOF” (Dow AgroSciences LLC, priority 2017, published 2023):

Each molecule was assayed on test plant species (assay: Post-emergent herbicidal activity test (greenhouse, foliar spray, visual growth reduction)). Details: post-emergence, 336 h, ALOMY: blackgrass (Alopecurus myosuroides), 140 g ai/ha, 14 days after application, read-out: Visual Growth Reduction (%) 14 Days After Application, ALOMY.
Format: in vivo
How it was run: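 Seedlings were raised 7-21 d in a greenhouse under a 15 h photoperiod until the first or second true leaf. Each compound, dissolved in acetone:DMSO 97:3 and diluted into a surfactant-containing spray mixture, was then applied at 187 L/ha. Plants were subirrigated, and growth reduction was scored visually at 14 d.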
In the case of `O=C(OCc1ccccn1)c1nc(-c2ccc(C(F)(F)F)cc2Cl)ccc1Cl` [F54, Pyridin-2-ylmethyl 3-chloro-6-(2-chloro-4-(trifluoromethyl)phenyl)picolinate], the pest or weed control at 140 g/ha is reported as 0 to 29%.
Work on `C#Cc1ccc(-c2ccc(C(F)(F)F)cc2Cl)nc1C(=O)OC` [F31, Methyl 6-(2-chloro-4-(trifluoromethyl)phenyl)-3-ethynylpicolinate] yielded a pest or weed control at 140 g/ha of 0 to 29%.

Same assay, conditions: post-emergence, 336 h, AMARE: redroot pigweed (Amaranthus retroflexus), 140 g ai/ha, 14 days after application, read-out: Visual Growth Reduction (%) 14 Days After Application, AMARE
With `O=C(OCc1ccccn1)c1nc(-c2ccc(C(F)(F)F)cc2Cl)ccc1Cl` [F54, Pyridin-2-ylmethyl 3-chloro-6-(2-chloro-4-(trifluoromethyl)phenyl)picolinate] the pest or weed control at 140 g/ha was 0 to 29%.
Molecule `C#Cc1ccc(-c2ccc(C(F)(F)F)cc2Cl)nc1C(=O)OC` [F31, Methyl 6-(2-chloro-4-(trifluoromethyl)phenyl)-3-ethynylpicolinate] has a pest or weed control at 140 g/ha of 45 to 59%.

Same assay, conditions: post-emergence, 336 h, AVEFA: wild oat (Avena fatua), 140 g ai/ha, 14 days after application, read-out: Visual Growth Reduction (%) 14 Days After Application, AVEFA
Work on `O=C(OCc1ccccn1)c1nc(-c2ccc(C(F)(F)F)cc2Cl)ccc1Cl` [F54, Pyridin-2-ylmethyl 3-chloro-6-(2-chloro-4-(trifluoromethyl)phenyl)picolinate] yielded a pest or weed control at 140 g/ha of 0 to 29%.
For `C#Cc1ccc(-c2ccc(C(F)(F)F)cc2Cl)nc1C(=O)OC` [F31, Methyl 6-(2-chloro-4-(trifluoromethyl)phenyl)-3-ethynylpicolinate], the pest or weed control at 140 g/ha was 0 to 29%.

Same assay, conditions: post-emergence, 336 h, CHEAL: lambsquarters (Chenopodium album), 140 g ai/ha, 14 days after application, read-out: Visual Growth Reduction (%) 14 Days After Application, CHEAL
With `O=C(OCc1ccccn1)c1nc(-c2ccc(C(F)(F)F)cc2Cl)ccc1Cl` [F54, Pyridin-2-ylmethyl 3-chloro-6-(2-chloro-4-(trifluoromethyl)phenyl)picolinate] the pest or weed control at 140 g/ha was 0 to 29%.
`C#Cc1ccc(-c2ccc(C(F)(F)F)cc2Cl)nc1C(=O)OC` [F31, Methyl 6-(2-chloro-4-(trifluoromethyl)phenyl)-3-ethynylpicolinate] gave a pest or weed control at 140 g/ha of 0 to 29%.

Same assay, conditions: post-emergence, 336 h, CIRAR: canada thistle (Cirsium arvense), 140 g ai/ha, 14 days after application, read-out: Visual Growth Reduction (%) 14 Days After Application, CIRAR
`O=C(OCc1ccccn1)c1nc(-c2ccc(C(F)(F)F)cc2Cl)ccc1Cl` [F54, Pyridin-2-ylmethyl 3-chloro-6-(2-chloro-4-(trifluoromethyl)phenyl)picolinate] was tested, and the pest or weed control at 140 g/ha was 0 to 29%.
`C#Cc1ccc(-c2ccc(C(F)(F)F)cc2Cl)nc1C(=O)OC` [F31, Methyl 6-(2-chloro-4-(trifluoromethyl)phenyl)-3-ethynylpicolinate] was tested, and the pest or weed control at 140 g/ha was 0 to 29%.

Same assay, conditions: post-emergence, 336 h, CYPES: yellow nutsedge (Cyperus esculentus), 140 g ai/ha, 14 days after application, read-out: Visual Growth Reduction (%) 14 Days After Application, CYPES
`O=C(OCc1ccccn1)c1nc(-c2ccc(C(F)(F)F)cc2Cl)ccc1Cl` [F54, Pyridin-2-ylmethyl 3-chloro-6-(2-chloro-4-(trifluoromethyl)phenyl)picolinate] was tested, and the pest or weed control at 140 g/ha was 0 to 29%.
`C#Cc1ccc(-c2ccc(C(F)(F)F)cc2Cl)nc1C(=O)OC` [F31, Methyl 6-(2-chloro-4-(trifluoromethyl)phenyl)-3-ethynylpicolinate] gave a pest or weed control at 140 g/ha of 0 to 29%.

Same assay, conditions: post-emergence, 336 h, DIGSA: crabgrass (Digitaria sanguinalis), 140 g ai/ha, 14 days after application, read-out: Visual Growth Reduction (%) 14 Days After Application, DIGSA
Work on `O=C(OCc1ccccn1)c1nc(-c2ccc(C(F)(F)F)cc2Cl)ccc1Cl` [F54, Pyridin-2-ylmethyl 3-chloro-6-(2-chloro-4-(trifluoromethyl)phenyl)picolinate] yielded a pest or weed control at 140 g/ha of 0 to 29%.
`C#Cc1ccc(-c2ccc(C(F)(F)F)cc2Cl)nc1C(=O)OC` [F31, Methyl 6-(2-chloro-4-(trifluoromethyl)phenyl)-3-ethynylpicolinate] was tested, and the pest or weed control at 140 g/ha was 0 to 29%.

Same assay, conditions: post-emergence, 336 h, ECHCG: barnyardgrass (Echinochloa crus-galli), 140 g ai/ha, 14 days after application, read-out: Visual Growth Reduction (%) 14 Days After Application, ECHCG
With `O=C(OCc1ccccn1)c1nc(-c2ccc(C(F)(F)F)cc2Cl)ccc1Cl` [F54, Pyridin-2-ylmethyl 3-chloro-6-(2-chloro-4-(trifluoromethyl)phenyl)picolinate] the pest or weed control at 140 g/ha was 75 to 84%.
With `C#Cc1ccc(-c2ccc(C(F)(F)F)cc2Cl)nc1C(=O)OC` [F31, Methyl 6-(2-chloro-4-(trifluoromethyl)phenyl)-3-ethynylpicolinate] the pest or weed control at 140 g/ha was 0 to 29%.

Same assay, conditions: post-emergence, 336 h, IPOHE: ivy-leaf morning glory (Ipomoea hederacea), 140 g ai/ha, 14 days after application, read-out: Visual Growth Reduction (%) 14 Days After Application, IPOHE
Work on `O=C(OCc1ccccn1)c1nc(-c2ccc(C(F)(F)F)cc2Cl)ccc1Cl` [F54, Pyridin-2-ylmethyl 3-chloro-6-(2-chloro-4-(trifluoromethyl)phenyl)picolinate] yielded a pest or weed control at 140 g/ha of 95 to 100%.
`C#Cc1ccc(-c2ccc(C(F)(F)F)cc2Cl)nc1C(=O)OC` [F31, Methyl 6-(2-chloro-4-(trifluoromethyl)phenyl)-3-ethynylpicolinate] showed a pest or weed control at 140 g/ha of 60 to 74%.

Same assay, conditions: post-emergence, 336 h, KCHSC: kochia (Bassia scoparia), 140 g ai/ha, 14 days after application, read-out: Visual Growth Reduction (%) 14 Days After Application, KCHSC
For `O=C(OCc1ccccn1)c1nc(-c2ccc(C(F)(F)F)cc2Cl)ccc1Cl` [F54, Pyridin-2-ylmethyl 3-chloro-6-(2-chloro-4-(trifluoromethyl)phenyl)picolinate], the pest or weed control at 140 g/ha was 95 to 100%.
`C#Cc1ccc(-c2ccc(C(F)(F)F)cc2Cl)nc1C(=O)OC` [F31, Methyl 6-(2-chloro-4-(trifluoromethyl)phenyl)-3-ethynylpicolinate] was tested, and the pest or weed control at 140 g/ha was 0 to 29%.

Same assay, conditions: post-emergence, 336 h, ORYSA: rice (Oryza sativa), 140 g ai/ha, 14 days after application, read-out: Visual Growth Reduction (%) 14 Days After Application, ORYSA
With `O=C(OCc1ccccn1)c1nc(-c2ccc(C(F)(F)F)cc2Cl)ccc1Cl` [F54, Pyridin-2-ylmethyl 3-chloro-6-(2-chloro-4-(trifluoromethyl)phenyl)picolinate] the pest or weed control at 140 g/ha was 0 to 29%.
Molecule `C#Cc1ccc(-c2ccc(C(F)(F)F)cc2Cl)nc1C(=O)OC` [F31, Methyl 6-(2-chloro-4-(trifluoromethyl)phenyl)-3-ethynylpicolinate] has a pest or weed control at 140 g/ha of 0 to 29%.

Same assay, conditions: post-emergence, 336 h, SETFA: giant foxtail (Setaria faberi), 140 g ai/ha, 14 days after application, read-out: Visual Growth Reduction (%) 14 Days After Application, SETFA
For `O=C(OCc1ccccn1)c1nc(-c2ccc(C(F)(F)F)cc2Cl)ccc1Cl` [F54, Pyridin-2-ylmethyl 3-chloro-6-(2-chloro-4-(trifluoromethyl)phenyl)picolinate], the pest or weed control at 140 g/ha was 85 to 94%.
With `C#Cc1ccc(-c2ccc(C(F)(F)F)cc2Cl)nc1C(=O)OC` [F31, Methyl 6-(2-chloro-4-(trifluoromethyl)phenyl)-3-ethynylpicolinate] the pest or weed control at 140 g/ha was 0 to 29%.

Same assay, conditions: post-emergence, 336 h, SORVU: grain sorghum (Sorghum vulgare), 140 g ai/ha, 14 days after application, read-out: Visual Growth Reduction (%) 14 Days After Application, SORVU
Work on `O=C(OCc1ccccn1)c1nc(-c2ccc(C(F)(F)F)cc2Cl)ccc1Cl` [F54, Pyridin-2-ylmethyl 3-chloro-6-(2-chloro-4-(trifluoromethyl)phenyl)picolinate] yielded a pest or weed control at 140 g/ha of 95 to 100%.
`C#Cc1ccc(-c2ccc(C(F)(F)F)cc2Cl)nc1C(=O)OC` [F31, Methyl 6-(2-chloro-4-(trifluoromethyl)phenyl)-3-ethynylpicolinate] showed a pest or weed control at 140 g/ha of 45 to 59%.

Same assay, conditions: post-emergence, 336 h, STEME: common chickweed (Stellaria media), 140 g ai/ha, 14 days after application, read-out: Visual Growth Reduction (%) 14 Days After Application, STEME
Molecule `O=C(OCc1ccccn1)c1nc(-c2ccc(C(F)(F)F)cc2Cl)ccc1Cl` [F54, Pyridin-2-ylmethyl 3-chloro-6-(2-chloro-4-(trifluoromethyl)phenyl)picolinate] has a pest or weed control at 140 g/ha of 0 to 29%.
`C#Cc1ccc(-c2ccc(C(F)(F)F)cc2Cl)nc1C(=O)OC` [F31, Methyl 6-(2-chloro-4-(trifluoromethyl)phenyl)-3-ethynylpicolinate] was tested, and the pest or weed control at 140 g/ha was 0 to 29%.

Same assay, conditions: post-emergence, 336 h, TRZAS: wheat, spring (Triticum aestivum), 140 g ai/ha, 14 days after application, read-out: Visual Growth Reduction (%) 14 Days After Application, TRZAS
For `O=C(OCc1ccccn1)c1nc(-c2ccc(C(F)(F)F)cc2Cl)ccc1Cl` [F54, Pyridin-2-ylmethyl 3-chloro-6-(2-chloro-4-(trifluoromethyl)phenyl)picolinate], the pest or weed control at 140 g/ha was 85 to 94%.
Work on `C#Cc1ccc(-c2ccc(C(F)(F)F)cc2Cl)nc1C(=O)OC` [F31, Methyl 6-(2-chloro-4-(trifluoromethyl)phenyl)-3-ethynylpicolinate] yielded a pest or weed control at 140 g/ha of 0 to 29%.
